Assay [1] deals with isolated rat islets of Langerhans. Description: Glucose-stimulated insulin secretion from isolated rat islets of Langerhans. In kind it is cell-based. As to conditions: substance 650 nmol/L; glucose 10 mmol/L. As for the experimental part: The following experiments illustrate the fact that subpeptides of amylin can act to reduce the amount of insulin produced by isolated islets of Langerhans in response to a standard glucose challenge. Similar results have been obtained using whole amylin. All experiments were performed by known methods used in experimental practice. See, e.g., Lacey P. E., and Kostianovsky M., Method for the Isolation of Intact Islets of Lanaerhans from the Rat Pancreas. Diabetes 1967; 16:35-39.
Briefly, rats were killed, and islets of Langerhans were isolated from their pancreases. Experiments were performed either with freshly isolated islets or after overnight incubation of islets (23 h) in standard culture medium and conditions at 37° C. Synthetic amylin peptide 27-37 or synthetic calcitonin gene related peptide (CGRP) was dissolved in a 1.0 mmol/L citric acid/sodium citrate buffer, pH 3.0, and the concentration of the amylin 27-37 was verified by quantitative amino acid analysis. See, e.g., Cooper G. J. S. et al., Proc Natl Acad Sci USA 1987; 84:8628-8632. […] Stimulation of islets was carried out at the standard stimulatory glucose concentration of 10 mmol/L.
Production of insulin is expressed as μU/islet/h. All experiments were performed with five replicates per point. The integrity of the islet response was assessed by comparing the responses after stimulation of different aliquots of islets by two and ten mmol/L glucose, respectively, and the strength of the inhibitory response was judged against that induced by 1 μg/ml (650 nmol/L) somatostatin. Somatostatin is a 14 amino acid peptide which is a known, potent inhibitor of the insulin secretory response of islet B-cells to glucose. Arimura A. Biomed res1981; 2:233-257. […] Petterson M., Ahren B., Bottcher G., Sundler F., Endocrinology 1986; 119:865-869.
The results are shown in TABLE 5 below and all results are expressed as standard error of the mean (s.e.m.). The significance of differences between the means of groups is assessed by the t-test. The result of stimulation by 10 mmol/L glucose is compared with the results of stimulation at 2 mmol/L glucose. In all other experimental conditions, the significance of the inhibitory effect is measured against the effect of 10 mmol/L glucose alone.

Assay [2] relates to HIT T-15 cells. Description: Amylin/insulin (A/I) secretion ratio of HIT T-15 cells. The format is cell-based, hamster. As for the experimental part: (§1) HIT T-15 cells (HIT cells; American Type Tissue Collection, Rockville, Md.) were subcultured weekly in Ham's F-12 medium (Irvine Scientific, Santa Ana, Calif.) containing 10% horse serum (Gemini Bioproducts, Calabasas, Calif.), 2.5% fetal bovine serum (FBS; Gemini), 2 mM L-glutamine, 10^5 IU penicillin G/1, 100 mg streptomycin/1 and 10.0 mM glucose. Cells were maintained at 37° C. and 5% C02/ 95% humidified air and medium was replaced every 2 to 3 days. All experiments were performed with cells from passages 62 to 71.
Five days before each secretion study, cells were subcultured at 0.26×10^6 cells per 0.8 ml medium per well in 24-well tissue culture plates. Medium was replaced on day 3. On day 5 cells were washed twice with […] 1.0 ml Krebs-Ringer buffer (KRB) containing 119 mM NaCl, 4.74 mM KCl, 2.54 mM CaCl2, 1.19 mM KH2 PO4, 25 mM NaHCO3, 10 mM HEPES and 0.1% protease-free bovine serum albumin (Cohn fraction V; Sigma Chemical Co., St. Louis Mo.) at pH 7.4. After washing 1.0 ml KRB was added and plates were incubated for 30 minutes at 37° C. in equilibrium with air. […] After a 60 minute incubation with test substance, supernatants were centrifuged to remove cell debris, then stored at -20° C. Supernatants were analyzed for insulin and amylin content by radioimmunoassay within one week of collection. Three wells per plate were trypsinized and cells per well were quantitated using a Coulter Counter (Model Zf, Coulter Electronics, Hialeah, Fla.). Data are expressed as the percentage change in pmoles of hormone released/10^6 cells, relative to controls (absence of test substance) or as the moles of amylin released/mole of insulin/10^6 cells/hour (A/I ratio).
Immunoreactive insulin content in supernatants was measured using a commercial radioimmunoassay (IM.78; Amersham, Arlington Heights, Ill.). Human insulin standards were prepared in KRB. […] The radioimmunoassay for immunoreactive amylin was as described in Example 7 above.

Assay [3] relates to HIT T-15 cells. Kind of assay: Insulin release from HIT T-15 cells. In kind it is cell-based, hamster. The procedure: (§2) HIT T-15 cells (HIT cells; American Type Tissue Collection, Rockville, MD; R. F. Santerre, et al. (1981) Proc. Nat. Acad. Sci. USA 78, 4339-4343.) were subcultured weekly in Ham's F-12 medium (Irvine Scientific, Santa Ana, Calif.) containing 10% horse serum (Gemini Bioproducts, Calabasas, Calif.), 2.5% fetal bovine serum (FBS; Gemini), 2 mM L-glutamine, and 10.0 mM glucose. Cells were maintained at 37° C. and 5% CO2 / 95% humidified air and medium was replaced every 2 to 3 days. All experiments were performed with cells from passages 66 to 71.
(§3) Amylin and insulin secretion were measured using reagents of analytical grade unless otherwise indicated. The secretion medium was a Krebs-Ringer buffer (KRB) containing 119 mM NaCl, 4.74 mM KCl, 2,54 mM CaCl2, 1.19 mM MgSO4, 1.19 mM KH2 PO4, 25 mM NaHCO3, 10 mM HEPES and 0.1% protease-free bovine serum albumin (Cohn fraction V; Sigma Chemical Co., St. Louis Mo.) at pH 7.4. Glibenclamide (Sigma) was initially dissolved in ethanol (50 mg/ml) then diluted to working concentrations in KRB. […] Tolbutamide (Sigma) was initially dissolved in dimethylsulfoxide (50 mg/ml). […] Metformin (Sigma) was diluted in KRB.
(§4) Five days before each secretion study cells were subcultured at 0.26×10^6 cells/0.8 ml medium/well in 24-well tissue culture plates (Corning Glass Works, Corning N.Y.). Medium was replaced on day 3. On day 5 cells were washed twice with 1.0 ml KRB then incubated in 1.0 ml KRB (30 minutes, 37° C.) in equilibrium with air. Cells were washed twice more prior to addition of 0.5 ml KRB containing the indicated concentrations of glucose, metformin, tolbutamide and glibenclamide. After a 60 minute incubation with test substance or substances, supernatants were centrifuged (5 minutes, 500×g, 5° C.; GPKR centrifuge, Beckman Instruments, Inc., Palo Alto, Calif.) to remove cell debris, then stored in polypropylene micro test tubes (Brinkman Instrument Co., Westbury, N.Y.) at -20° C. until analyzed by radioimmunoassay. Supernatants were analyzed for insulin and amylin content within one week of collection. Three wells per plate were randomly selected for cell quantitation. Cells were incubated with 75 μg trypsin and 30 μg EDTA in 150 μl normal saline (8 minutes, 37° C.), then counted on a Coulter Counter (Model Zf, Coulter Electronics, Hialeah, Fla.).
(§5) Immunoreactive insulin content in supernatants was measured using a commercial radioimmunoassay (IM.78; Amersham, Arlington Heights, Ill.). […] The radioimmunoassay for immunoreactive amylin was as follows. Assay diluent was phosphate-buffered saline (PBS; 137 mM NaCl, 2.68 mM KCl, 1.47 mM KH2 PO4, 6.65 mM Na2 HPO4) containing 0.1% Triton-X 100 (v/v), 0.01% NaN3 (w/v), and 0.1% gelatin (v/v; teleostean, 45% aqueous solution, Sigma) at pH 7.4. All incubations were performed at 4° C. ^125 I-[Tyr 37]-human synthetic amylin tracer was iodinated by the chloramine-T method and purified on a C18 Sep-Pak (Waters Associates, Milford, Mass.). Specific activity was approximately 500 μCi/μg.
Data in FIGS. 3 and 4 are shown as the mean±S.D. of 4 replicate samples. An unpaired Student's t-test was used to compare secretion in the absence and presence of hypoglycemic agent (Statview 512+ program; Brain Power, Inc., Calabasas, Calif.).
as §1

In assay [4] the test system is HIT T-15 cells. Description: Amylin release from HIT T-15 cells. In kind it is cell-based, hamster. As for the experimental part: as §2, §3, §4, §5
Standards and unknowns were run in triplicate or duplicate respectively. After an 18 hour incubation, 100 μl of tracer containing 20,000 dpm was added and samples were incubated an additional 18 hours. To ensure complete immunoprecipitation of amylin:antibody complexes, 100 μl of rabbit gamma globulin (0.35 mg/ml, Scantibodies Laboratory, Santee, Calif.) and 100 μl of goat anti-rabbit gamma globulin (0.50 mg/ml, purified grade; Scantibodies) were added. After a 15 minute incubation, 1.0 ml 2% polyethylene glycol (w/v. MW 8,000; Sigma) in assay buffer was added and samples were centrifuged (30 minutes, 1500×g, 5° C.). Samples were decanted and pellets were counted on a gamma counter (model 1277; LKB Wallac, Turku, Finland).
Data in FIGS. 3 and 4 are shown as the mean±S.D. of 4 replicate samples.

Assay [5] deals with T1, insulin receptor on red blood cells (Homo sapiens, UniProt P06213).
T1 construct: endogenous in cells; host or cells: red blood cells
Kind of assay: Displacement of insulin from its receptor on red blood cells. In kind it is binding.

Where [6] appears, read: cells challenged with 10 mM glucose plus 15 mM arginine.
The mark [7] stands for this setting: 10 mM glucose or 15 mM arginine alone or in combination, n=3.

pEC50: −log10 of the molar value.

Take `C[C@H](N)C(=O)NCC(=O)N[C@H]1CSSC[C@@H](C(=O)O)NC(=O)[C@H](CO)NC(=O)[C@H]([C@@H](C)O)NC(=O)[C@H](Cc2ccccc2)NC(=O)[C@H]([C@@H](C)O)NC(=O)[C@H](CCCCN)NC(=O)[C@H](Cc2c[nH]c3ccccc23)NC(=O)[C@H](Cc2ccccc2)NC(=O)[C@H](Cc2ccccc2)NC(=O)[C@H](CC(N)=O)NC(=O)[C@H](CCCCN)NC1=O` [Somatostatin]: in assay [1], the Insulin production is 44 μU/islet/hr and the “Relative insulin secretion inhibition (percentage by which insulin production is reduced from control)” value stood at 45%. In the assay with HIT T-15 cells [2] (over the somatostatin concentration range tested, 10 mM glucose plus 15 mM arginine), the A/I ratio was determined as 0.36±0.02. Moreover, in the assay on HIT T-15 cells [3] (setting [6]), the “Effect on insulin release (in words)” value is “suppressed both amylin and insulin release”. Further, the “Effect on amylin release (in words)” value in the assay with HIT T-15 cells [4] (setting [6]) was “suppressed both amylin and insulin release”.

Regarding `N=C(N)NCCC[C@H](N)C(=O)O` [arginine], in the assay on HIT T-15 cells [2] (setting [7]), the A/I ratio amounted to 0.41±0.05. Besides, the “Mean A/I ratio” value with HIT T-15 cells [2] (over the arginine concentration range tested) was 0.44±0.02. Besides, the “Effect on insulin secretion (in words)” value in the assay on HIT T-15 cells [3] (increasing arginine, 60 min) was “stimulated amylin and insulin secretion in a dose-dependent manner”. Also, the “Effect on amylin secretion (in words)” value in the assay with HIT T-15 cells [4] (increasing arginine, 60 min) was “stimulated amylin and insulin secretion in a dose-dependent manner”.

In general, pEC50 refers to the EC50 on a negative log10 scale, so that one unit is a factor of ten. As for `O=C[C@H](O)[C@@H](O)[C@H](O)[C@H](O)CO` [glucose], the A/I ratio in the assay on HIT T-15 cells [2] (setting [7]) is 0.32±0.01. In addition, the “Increase in insulin secretion” value with HIT T-15 cells [3] (10 mM glucose, control (no drug) conditions) fell in the range of 4 to 5 fold. Further, the “Concentration of maximum insulin secretion” value with HIT T-15 cells [3] (60 min incubation) was 20 mM. Further, the pEC50 in the assay on HIT T-15 cells [3] (Mesocricetus auratus, HIT-T15, 1 h, 60 min incubation, read-out: Half-maximal response (EC50), insulin secretion) was roughly 2.70; with HIT T-15 cells [4] (Mesocricetus auratus, HIT-T15, 1 h, 60 min incubation, read-out: Half-maximal response (EC50), amylin secretion), roughly 2.70. For the same compound, in the assay with HIT T-15 cells [4] (10 mM glucose, control conditions), the “Increase in secretion of amylin” value was in the range of 2.5 to 4 fold. Also, the “Concentration of maximum amylin secretion” value with HIT T-15 cells [4] (60 min incubation) was 20 mM.

“amylin: 37-residue peptide hormone from pancreatic amyloid; preparation not specified at this place (KCNTATCATQRLANFLVHSSNNFGAILSSTNVGSNTY; Islet amyloid polypeptide; UniProt P10997 34-70, looked up)”: the “Displacement of insulin from its receptor (in words)” value in assay [5] is given as “not capable of significantly displacing insulin”.
